Reference: patent publication US9573970B2, “4-{4-[(1E)-4-(2,9-diazaspiro[5.5]undec-2-yl)but-1-en-1-yl]-2-methylbenzyl}-5-(propan-2-yl)-1H-pyrazol-3-yl beta-D glucopyranoside acetate” (Eli Lilly and Company, priority 2013, dated 2017)

Columns and labels:
[1] = tested on: normal glycemic C57B1/6 mouse; experiment: Glucose lowering effects in oral glucose tolerance test (OGTT); format: in vivo; conditions: for Glucose, 20 Minute: 20 min after dextrose; for Glucose, 20 Minute / Glucose, 40 Minute / Glucose, 60 Minute / Glucose, 120 Minute / Baseline Adjusted AUC (glucose) / Glucose, 0 Minute: mean ± SE; for Glucose, 40 Minute: 40 min after dextrose; for Glucose, 60 Minute: 60 min after dextrose; for Glucose, 120 Minute: 120 min after dextrose; for Baseline Adjusted AUC (glucose): OGTT; for Glucose, 0 Minute: baseline 3 h after compound, before dextrose 3 g/kg
Experimental: The test compound is formulated by adding a vehicle of 1% hydroxyethylcellulose, 0.25% Tween® 80 w/antifoam 0.05% to preweighed test compound to make a 1 mg/ml solution. The mixture is probe sonicated for approximately 30 seconds. The resulting solution is used as a stock solution from which the lower concentration dose solutions are prepared by dilution with the vehicle.
Single housed C57B1/6 mice are fasted overnight by removing access to food the late afternoon before test day. The following morning, the mice are weighed and a single fasting blood sample is taken by tail snip to measure glucose by glucometer (Roche AccuChek). Study groups (n=5) are determined based on fasted blood glucose and comprise preferably animals in the range of 80-100 mg/dl glucose.
After grouping, the first mouse is orally gavaged with 10 ml/kg test compound preparation and a timer started. Each subsequent animal is dosed a minute and a half apart. Three hours after the first compound treatment is started, a baseline blood sample is taken for measuring glucose (from the first animal, via tail snip). The animal is then immediately given an oral dose of 50% dextrose (Hospira) at 3 g/kg. Blood samples are taken for glucose, exactly a minute and half apart, by tail vein so that blood is collected in each animal at 20, 40, 60 and 120 minutes after the dextrose dose.

[2] = tested on: male rats with STZ-induced diabetes; experiment: Mixed meal tolerance test (MTT) in male rats with streptozotocin induced diabetes; format: in vivo, rat; conditions: for Glucose value, 0 min.: 30 min after compound, before meal; for Glucose value, 0 min. / Baseline Adjusted AUC (glucose) / Glucose value, 20 min. / Glucose value, 40 min. / Glucose value, 60 min. / Glucose value, 120 min.: mean ± SE; for Baseline Adjusted AUC (glucose): MTT
Experimental: The test compound is formulated by adding a vehicle of 1% hydroxyethylcellulose (HEC), 0.25% Tween® 80 w/antifoam 0.05% to preweighed test compound to make a 2.5 mg/ml solution. The mixture is probe sonicated for approximately 30 seconds. The resulting solution is used as a stock solution, from which the lower concentration dose solutions are prepared by dilution with the vehicle. STZ, 45 mg/kg, is formulated by dissolving in 0.1M Citrate buffer in 3 ml aliquots and stored in the dark on ice, when not being administered. A high fat content mixed meal (Bio-Serv® Rodent Diet F3282 High Fat) comprising Fat Calories (60%), Carbohydrate Calories (26%) and Protein Calories (15%) is utilized. Single housed Sprague Dawley rats are allowed to acclimate for a period of 3 to 7 days.
In an effort to ensure that the animals have not recently fed, STZ is administered in the afternoon, approximately six hours into the light cycle (lights on 6 am, lights off 6 pm). The animals are anesthetized with isoflurane and STZ is delivered via tail vein injection. Once animals regain consciousness, they are returned to housing and allowed to recover for 7 days.
On the two days immediately prior to the meal tolerance test (MTT) all rats are given a small amount (2-4 g) of the F3282 diet, so they became acclimated to it prior to receiving it during the experiment. On the evening before the experiment, the rats are moved into clean cages and their food is removed. The following morning animals are weighed and a blood sample is taken by tail snip for glucose measurement (Abbott AlphaTRAK™ glucometers: code 29) Animals are grouped n=6 based on fasted body weight and glucose. Thirty minutes after the test compound is orally administered, two glucose measurements are collected. Then a five gram pellet of Bio-Serv® diet 3282 is given. After 20 minutes remaining food is taken away and weighed. Blood samples are taken at 20, 40, 60 and 120 minutes for glucose measurement.

[3] = in words, Example 1 free base 10 and 30 mg/kg, Acarbose 60 mg/kg

Compound: Cc1cc(/C=C/CCN2CCCC3(CCNCC3)C2)ccc1Cc1c(O[C@@H]2O[C@H](CO)[C@@H](O)[C@H](O)[C@H]2O)n[nH]c1C(C)C [Example 1 (free base), 4-{4-[(1E)-4-(2,9-diazaspiro[5.5]undec-2-yl)but-1-en-1-yl]-2-methylbenzyl}-5-(propan-2-yl)-1H-pyrazol-3-yl beta-D-glucopyranoside]
- Glucose, 20 Minute ([1]; 0.3 mg/kg oral): 185 ± 13.7 mg/dL
- Glucose, 40 Minute ([1]; 0.3 mg/kg oral): 197 ± 14.7 mg/dL
- Glucose, 60 Minute ([1]; 0.3 mg/kg oral): 164 ± 6.3 mg/dL
- Glucose, 120 Minute ([1]; 0.3 mg/kg oral): 121 ± 11.8 mg/dL
- Baseline Adjusted AUC (glucose) ([1]; 0.3 mg/kg oral, in mg·min/dL): 5400 ± 519^
- Glucose, 0 Minute ([1]; 0.3 mg/kg oral): 78 ± 4.2 mg/dL
- Glucose, 20 Minute ([1]; 1 mg/kg oral): 147 ± 8.3 mg/dL
- Glucose, 40 Minute ([1]; 1 mg/kg oral): 171 ± 11.1 mg/dL
- Glucose, 60 Minute ([1]; 1 mg/kg oral): 162 ± 5.8 mg/dL
- Glucose, 120 Minute ([1]; 1 mg/kg oral): 109 ± 7.3 mg/dL
- Baseline Adjusted AUC (glucose) ([1]; 1 mg/kg oral, in mg·min/dL): 4158 ± 374^
- Glucose, 0 Minute ([1]; 1 mg/kg oral): 76 ± 3.3 mg/dL
- Glucose, 20 Minute ([1]; 3 mg/kg oral): 133 ± 7.1 mg/dL
- Glucose, 40 Minute ([1]; 3 mg/kg oral): 150 ± 7.5 mg/dL
- Glucose, 60 Minute ([1]; 3 mg/kg oral): 155 ± 7.2 mg/dL
- Glucose, 120 Minute ([1]; 3 mg/kg oral): 115 ± 10 mg/dL
- Baseline Adjusted AUC (glucose) ([1]; 3 mg/kg oral): 3606 ± 421
- Glucose, 0 Minute ([1]; 3 mg/kg oral): 72 ± 2.6 mg/dL
- Glucose, 20 Minute ([1]; 10 mg/kg oral): 124 ± 1.2 mg/dL
- Glucose, 40 Minute ([1]; 10 mg/kg oral): 137 ± 5.4 mg/dL
- Glucose, 60 Minute ([1]; 10 mg/kg oral): 138 ± 6.1 mg/dL
- Glucose, 120 Minute ([1]; 10 mg/kg oral): 114 ± 4.3 mg/dL
- Baseline Adjusted AUC (glucose) ([1]; 10 mg/kg oral): 2693 ± 309
- Glucose, 0 Minute ([1]; 10 mg/kg oral): 78 ± 5.4 mg/dL
- Baseline adjusted glucose AUC during an OGTT ([1]; 0.3-10 mg/kg oral, in words): dose dependent decrease in baseline adjusted glucose area under the curve (AUC)
- Glucose excursion following an oral bolus of 50% dextrose ([1]; 0.3-10 mg/kg oral, in words): dose dependent decrease in the glucose excursion
- Glucose value, 0 min. ([2]; 10 mg/kg oral): 139 ± 16.1 mg/dL
- Baseline Adjusted AUC (glucose) ([2]; 10 mg/kg oral): 22432 ± 2234
- Glucose value, 20 min. ([2]; 10 mg/kg oral): 221.2 ± 26.3 mg/dL
- Glucose value, 40 min. ([2]; 10 mg/kg oral): 268.7 ± 29 mg/dL
- Glucose value, 60 min. ([2]; 10 mg/kg oral): 330 ± 36.7 mg/dL
- Glucose value, 120 min. ([2]; 10 mg/kg oral): 490.8 ± 39.2 mg/dL
- Glucose value, 0 min. ([2]; 30 mg/kg oral): 137.4 ± 26.9 mg/dL
- Baseline Adjusted AUC (glucose) ([2]; 30 mg/kg oral): 14649 ± 3673
- Glucose value, 20 min. ([2]; 30 mg/kg oral): 195.4 ± 44.8 mg/dL
- Glucose value, 40 min. ([2]; 30 mg/kg oral): 232 ± 52.2 mg/dL
- Glucose value, 60 min. ([2]; 30 mg/kg oral): 263.9 ± 62.2 mg/dL
- Glucose value, 120 min. ([2]; 30 mg/kg oral): 355.3 ± 73.2 mg/dL
- Glucose baseline adjusted AUCs in the MTT [2, 3]: dose dependent decrease in glucose baseline adjusted AUCs
- Glucose in the MTT compared to the vehicle controls [2, 3]: significantly and dose dependently decreases glucose
